What was measured:
GLUT1 = target: T1, GLUT1 (Homo sapiens, UniProt P11166); test: Indirect measurement of GLUT activity by quantification of intracellular ATP levels (glucose induced ATP increase); format: cell-based; details: DLD1 cells; 1 mM glucose, 1 uM Rotenone, 15 min; standardized to cytochalasin B IC50 values; read-out: IC50 regarding glucose induced ATP increase (GLUT1 inhibition)
T1 construct: endogenous in cells
T1 sequence (P11166 1-492): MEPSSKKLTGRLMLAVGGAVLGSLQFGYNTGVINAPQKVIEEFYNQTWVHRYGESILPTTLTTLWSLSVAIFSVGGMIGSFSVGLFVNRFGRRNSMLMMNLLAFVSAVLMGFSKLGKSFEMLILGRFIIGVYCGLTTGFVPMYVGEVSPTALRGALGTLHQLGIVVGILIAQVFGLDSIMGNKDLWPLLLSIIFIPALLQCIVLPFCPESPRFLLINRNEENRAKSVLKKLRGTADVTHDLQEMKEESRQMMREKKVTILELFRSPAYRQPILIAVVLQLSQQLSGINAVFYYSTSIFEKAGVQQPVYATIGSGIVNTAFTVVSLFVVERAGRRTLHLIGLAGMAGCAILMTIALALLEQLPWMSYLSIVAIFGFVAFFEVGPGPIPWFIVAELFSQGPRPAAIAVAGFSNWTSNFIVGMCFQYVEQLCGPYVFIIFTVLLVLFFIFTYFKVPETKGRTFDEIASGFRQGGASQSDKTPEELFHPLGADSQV
Description: (§1) It is well known that a combination of small-molecule inhibitors of mitochondrial electron transport chain and glucose catabolism synergistically suppress ATP production and impair cellular viability (Ulanovskaya et al., 2008, 2011; Liu, et al. 2001). We therefore used DLD1 or CHO-K1 cells in combination with an oxidative phosphorylation inhibitor to identify GLUT inhibitors. Cell lines were maintained in DMEM medium supplemented with 10% FCS and 1% Penicillin-Streptomycin solution and 2% Glutamax. The cells were treated with trypsin and seeded into 384 plates at a density of 4000 cells/well. The cells were then cultured overnight in glucose free media containing 1% FCS to reduce intracellular ATP levels. After 24 h the cells were incubated at 37° C. containing the appropriate glucose or in case of GLUT2 fructose concentration (1 mM and 30 mM respectively) with or without compounds and 1 uM Rotenone for 15 min. The CellTiter-Glo® Luminescent Cell Viability Assay from Promega was then used to measure ATP levels. Compounds able to reduce the ATP Levels within 15 min of glucose application were considered to be glucose uptake inhibitors.

GLUT2 = target: T2, GLUT2 (Homo sapiens, UniProt P11168); test: Indirect measurement of GLUT activity by quantification of intracellular ATP levels (fructose induced ATP increase); format: cell-based; details: 30 mM fructose, 1 uM Rotenone, 15 min; read-out: IC50 regarding fructose induced ATP increase (GLUT2 inhibition)
T2 sequence (P11168 1-524): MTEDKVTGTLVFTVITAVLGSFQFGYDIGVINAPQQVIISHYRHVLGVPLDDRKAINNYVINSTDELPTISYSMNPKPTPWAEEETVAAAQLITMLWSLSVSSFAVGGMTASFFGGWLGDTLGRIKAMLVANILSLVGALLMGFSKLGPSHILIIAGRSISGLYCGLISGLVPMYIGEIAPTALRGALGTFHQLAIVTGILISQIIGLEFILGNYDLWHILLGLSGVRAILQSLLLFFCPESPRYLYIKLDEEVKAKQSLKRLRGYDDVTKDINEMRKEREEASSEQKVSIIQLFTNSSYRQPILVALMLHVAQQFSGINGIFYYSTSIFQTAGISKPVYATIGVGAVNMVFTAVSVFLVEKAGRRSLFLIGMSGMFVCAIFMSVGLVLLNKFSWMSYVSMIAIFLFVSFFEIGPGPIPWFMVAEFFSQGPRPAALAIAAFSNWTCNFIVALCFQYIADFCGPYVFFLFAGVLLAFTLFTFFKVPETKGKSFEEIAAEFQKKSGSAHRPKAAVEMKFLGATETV
Description: as §1

## Cc1ccc2nc(C)cc(C(=O)Nc3cn(Cc4ccc(F)cc4)nc3C)c2c1 [Example 1, N-[1-(4-fluorobenzyl)-3-methyl-1H-pyrazol-4-yl]-2,6-dimethylquinoline-4-carboxamide]
GLUT1
  IC50: 61 nM
GLUT2
  IC50: 5210 nM

## Cc1nn(Cc2ccc(C#N)cc2)cc1NC(=O)c1cc(C(N)=O)nc2ccccc12 [Example 9, N^4-[1-(4-cyanobenzyl)-3-methyl-1H-pyrazol-4-yl]quinoline-2,4-dicarboxamide]
GLUT1
  IC50: 4.3 nM
GLUT2
  IC50: 36100 nM

## Cc1nn(Cc2ccc(F)c(F)c2)cc1NC(=O)c1cc(C(N)=O)nc2ccccc12 [Example 55, N^4-[1-(3,4-difluorobenzyl)-3-methyl-1H-pyrazol-4-yl]quinoline-2,4-dicarboxamide]
GLUT1
  IC50: 83 nM

## Cc1nn(Cc2ccncc2)cc1NC(=O)c1cc(C(N)=O)nc2ccccc12 [Example 58, N^4-[3-methyl-1-(pyridin-4-ylmethyl)-1H-pyrazol-4-yl]quinoline-2,4-dicarboxamide]
GLUT1
  IC50: 702 nM

## COc1ccc(Cn2cc(NC(=O)c3cc(C(N)=O)nc4ccccc34)c(C)n2)cc1 [Example 13, N^4-[1-(4-methoxybenzyl)-3-methyl-1H-pyrazol-4-yl]quinoline-2,4-dicarboxamide]
GLUT1
  IC50: 2.3 nM

## CS(=O)(=O)c1ccc(Cn2cc(NC(=O)c3cc(C(N)=O)nc4ccccc34)c(C(F)(F)F)n2)cc1 [Example 42, N^4-{1-[4-(methylsulfonyl)benzyl]-3-(trifluoromethyl)-1H-pyrazol-4-yl}quinoline-2,4-dicarboxamide]
GLUT1
  IC50: 61 nM

## Cc1nn(Cc2ccc(C#N)cc2)cc1NC(=O)c1cc(C2CC2)nc2ccc(Br)cc12 [Example 51, 6-bromo-N-[1-(4-cyanobenzyl)-3-methyl-1H-pyrazol-4-yl]-2-cyclopropylquinoline-4-carboxamide]
GLUT1
  IC50: 5.2 nM

## Cc1nn(Cc2ccc(F)cc2)cc1NC(=O)c1cc(C(N)=O)nc2ccccc12 [Example 5, N^4-[1-(4-fluorobenzyl)-3-methyl-1H-pyrazol-4-yl]quinoline-2,4-dicarboxamide]
GLUT1
  IC50: 15 nM

## COC(=O)c1nn(Cc2ccc(F)cc2)cc1NC(=O)c1cc(C(F)(F)F)nc2ccc(Br)cc12 [Example 17, methyl 4-({[6-bromo-2-(trifluoromethyl)quinolin-4-yl]carbonyl}amino)-1-(4-fluorobenzyl)-1H-pyrazole-3-carboxylate]
GLUT1
  IC50: 64 nM

## CC(c1ccc(C#N)cc1)n1cc(NC(=O)c2cc(C(N)=O)nc3ccccc23)c(C(F)(F)F)n1 (racemic) [Example 40, (±)—N^4-{1-[1-(4-cyanophenyl)ethyl]-3-(trifluoromethyl)-1H-pyrazol-4-yl}quinoline-2,4-dicarboxamide]
GLUT1
  IC50: 32 nM

## Cc1ccc(Cn2cc(NC(=O)c3cc(C(N)=O)nc4ccccc34)c(C)n2)cc1 [Example 54, N^4-[3-methyl-1-(4-methylbenzyl)-1H-pyrazol-4-yl]quinoline-2,4-dicarboxamide]
GLUT1
  IC50: 13 nM

## CCc1nn(Cc2ccc(C#N)cc2)cc1NC(=O)c1cc(C(N)=O)nc2cc(F)ccc12 [Example 59, N^4-[1-(4-cyanobenzyl)-3-ethyl-1H-pyrazol-4-yl]-7-fluoroquinoline-2,4-dicarboxamide]
GLUT1
  IC50: 34 nM
